Test results as given in paper PMC10891803, “Seleno-Warfare against Cancer: Decoding Antitumor Activity of Novel Acylselenoureas and Se-Acylisoselenoureas” (Pharmaceutics, 2024).

Key:
DU-145 = assay: MTT cell viability assay, DU-145; type: cell-based, human; settings: 48 h; for percentage of cell growth, DU-145: 10 µM, MTT screening (Figure S1); for IC50: Homo sapiens, DU-145, MTT, mean ± SD of three experiments, read-out: IC50 DU-145 (Prostate)
Procedure: (§1) The cell lines were purchased from the American Type Culture Collection (ATCC). The four tumor cell lines used were as follows: MDA-MB-231 (triple-negative breast cancer), HTB-54 (lung cancer), DU-145 (prostate cancer), and HCT-116 (colon cancer), and the non-tumoral cell line 185-B5 (mammary tissue) were grown in Roswell Park Memorial Institute (RPMI) 1640 medium culture (Thermo Scientific, USA), supplemented with 10% fetal bovine serum (FBS) (Thermo Scientific, USA) and 1% of antibiotics (10,000 units/mL penicillin and 10 mg/mL streptomycin (Thermo Scientific, USA)). Cells were preserved in tissue culture flasks at 37 °C and 5% CO2. The culture medium was replaced every two to three days.
(§2) Cell viability was determined using the MTT colorimetric assay. A total of 10,000 cells were seeded in each well in a 96-well plate for 24 h. Then, cells were incubated with the corresponding concentration of each tested compound and with DMSO (1%) as control for 48 h. Each compound was dissolved in DMSO at a stock concentration of 0.01 M. Firstly, each compound was tested at 2 concentrations (10 µM and 50 µM) in four human tumoral cell lines MDA-MB-231, HTB-54, DU-145, and HCT-116. Serial dilutions from stock concentration with culture medium were prepared. […] The cell viability was determined by the addition of 20 µL of MTT and its incubation for 2.5 h. Later, the culture medium was removed, and 50 µL of DMSO was added to dissolve formazan crystals. The absorbance was measured at 550 nm. Inhibitory concentration 50 (IC50) and selectivity index (SI) were calculated. Three different experiments were performed independently.
(§3) Cell viability results are expressed as the mean ± standard deviation (SD), and experiments were independently performed thrice in triplicates. IC50 values were determined using a non-linear curve regression analysis calculated by OriginPro 9.0 software.

MDA-MB-231 = assay: MTT cell viability assay, MDA-MB-231; type: cell-based, human; settings: for percentage of cell growth, MDA-MB-231: 10 µM, MTT screening (Figure S1); for percentage of cell growth, MDA-MB-231 / IC50: 48 h; for IC50: Homo sapiens, MDA-MB-231, MTT, mean ± SD of three experiments, read-out: IC50 MDA-MB-231 (Breast); for Selectivity index (SI): IC50 184-B5/IC50 MDA-MB-231
Procedure: as §1, §2, §3

[1] = tested on: MDA-MB-231, HTB-54, DU-145, and HCT-116; assay: MTT initial screening in four tumor cell lines; type: cell-based; settings: Homo sapiens, in at least three cell lines, 48 h, read-out: cell growth inhibition
Procedure: as §2

HTB-54 = assay: MTT cell viability assay, HTB-54; type: cell-based, human; settings: 48 h; for percentage of cell growth, HTB-54: 10 µM, MTT screening (Figure S1); for IC50: Homo sapiens, HTB-54, MTT, mean ± SD of three experiments, read-out: IC50 HTB-54 (Lung)
Procedure: as §1, §2, §3

HCT-116 = assay: MTT cell viability assay, HCT-116; type: cell-based, human; settings: 10 µM, 48 h, MTT screening (Figure S1)
Procedure: as §1, §2, §3

184-B5 = assay: MTT cell viability assay, non-malignant 184-B5; type: cell-based; settings: Homo sapiens, 48 h, mean ± SD of three experiments, read-out: IC50 184-B5 (Breast, non-tumoral)
Procedure: as §1, §2, §3

| Structure (SMILES) | percentage of cell growth, DU-145 (DU-145) [%] | IC50 (DU-145) [µM] | percentage of cell growth, MDA-MB-231 (MDA-MB-231) [%] | IC50 (MDA-MB-231) [µM] | Selectivity index (SI) (MDA-MB-231) | inhibition at 10 µM [1] [%] | percentage of cell growth, HTB-54 (HTB-54) [%] | IC50 (HTB-54) [µM] | percentage of cell growth, HCT-116 (HCT-116) [%] | melting point [°C] | IC50 (184-B5) [µM] |
| --- | --- | --- | --- | --- | --- | --- | --- | --- | --- | --- | --- |
| O=C(NC(=[Se])NC1CCCCC1)c1ccccc1 [Compound 8] | -90.24 | 8.83 ± 0.16 | 15.90 | 17.4 ± 5.09 | 1.55 | > 50 | -18.34 | 14.6 ± 1.11 | 104.00 | 71 to 73 | 27 ± 5.2 |
| O=C(/C=C/c1ccc2c(c1)OCO2)NC(=[Se])NC1CCCCC1 [Compound 14] | 10.32 |  | 83.89 |  |  |  | 44.98 |  | 101.60 | 149 to 151 |  |
| O=C(NC(=[Se])NC1CCCCC1)c1ccc2c(c1)OCO2 [Compound 12] | -74.14 | 5.22 ± 0.13 | -7.07 | 30.7 ± 2.31 | 1.28 | > 50 | -34.26 | 10.7 ± 13.7 | 76.40 | 117 to 119 | 39.3 ± 18.4 |
| CC(C)NC(=[Se])NC(=O)/C=C/c1ccc2c(c1)OCO2 [Compound 21] | 76.50 |  | -6.05 |  |  |  | 27.21 |  | 89.57 | 172 to 174 |  |
| CC(C)N=C(NC(C)C)[Se]C(=O)c1ccccc1 [Compound 3] | 149.27 |  | 129.19 |  |  |  | 109.68 |  | 119.69 | 163 to 165 |  |
| CC(C)N=C(NC(C)C)[Se]C(=O)c1cccs1 [Compound 6] | 124.09 |  | 124.62 |  |  |  | 111.26 |  | 122.83 | 120 to 122 |  |
| CC(C)NC(=[Se])NC(=O)c1ccccc1O [Compound 22] | -6.12 |  | 73.13 |  |  |  | 3.08 |  | 80.19 | 162 to 164 |  |
| CC(C)NC(=[Se])NC(=O)c1ccc2c(c1)OCO2 [Compound 19] | -82.75 | 5.13 ± 0.02 | -45.41 | 12.7 ± 10.8 | 2.89 | > 50 | -4.52 | 21.9 ± 9.1 | 97.76 |  | 36.8 ± 14.5 |
| CC(C)NC(=[Se])NC(=O)/C=C/c1ccccc1 [Compound 18] | 15.40 |  | 65.14 |  |  |  | 57.40 |  | 75.78 |  |  |
| CC(C)N=C(NC(C)C)[Se]C(=O)Cc1cccs1 [Compound 5] | 143.58 |  | 115.35 |  |  |  | 92.05 |  | 139.96 | 108 to 110 |  |
| CC(C)N=C(NC(C)C)[Se]C(=O)c1ccc2c(c1)OCO2 [Compound 7] | 131.68 |  | 119.84 |  |  |  | 108.33 |  | 105.51 | 138 to 140 |  |
| CC(=O)Oc1ccccc1C(=O)NC(=[Se])NC1CCCCC1 [Compound 9] | -44.19 | 8.76 ± 2.13 | 1.88 | 10.2 ± 0.29 | 1.11 | > 50 | -7.60 | 29.8 ± 22.5 | 117.25 | 79 to 81 | 11.4 ± 18 |
| O=C(/C=C/c1cccs1)NC(=[Se])NC1CCCCC1 [Compound 13] | 52.85 |  | -21.69 |  |  |  | 39.11 |  | 145.89 |  |  |
| O=C(NC(=[Se])NC1CCCCC1)c1cccs1 [Compound 10] | -82.64 | 5.18 ± 0.19 | 107.48 | 10.1 ± 0.25 | 4.83 | > 50 | -25.90 | 10.1 ± 4.88 | 122.54 | 64 to 66 | 49 ± 39.2 |
| CC(C)NC(=[Se])NC(=O)/C=C/c1cccs1 [Compound 20] | -13.89 |  | 65.39 |  |  |  | 38.63 |  | 109.34 | 148 to 149 |  |
| CC(=O)Oc1ccccc1C(=O)NC(=[Se])NC(C)C [Compound 16] | -67.79 | 11.4 ± 3.07 | 24.61 | 10.2 ± 13.6 | 2.17 | > 50 | -0.98 | 23 ± 23.5 | 86.98 | 75 to 77 | 22.2 ± 3.41 |
| CC(C)NC(=[Se])NC(=O)c1cccs1 [Compound 17] | -72.56 | 5.12 ± 0.07 | 20.49 | 10.2 ± 0.39 | 4.15 | > 50 | -22.97 | 5.09 ± 0.34 | 115.35 | 120 to 122 | 42.2 ± 11.4 |
| O=C(/C=C/c1ccccc1)NC(=[Se])NC1CCCCC1 [Compound 11] | 50.53 |  | 71.20 |  |  |  | 57.39 |  | 103.12 | 140 to 142 |  |
| O=C(/C=C/c1ccccc1)[Se]C(=NC1CCCCC1)NC1CCCCC1 [Compound 2] | 118.17 |  | -19.52 |  |  |  | 74.82 |  | 120.40 | 156 to 158 |  |
